Test results as given in patent publication US7026454B1, “Neuroendocrine marker of prostate cancer and method for producing same” (University of Kansas Medical Center, priority 1998, dated 2006).
Where no end group is shown, it is not given here.

Tests used:
[1] = tested on: PC-3M cells; test: 3H-thymidine incorporation (DNA synthesis) in PC-3M cells; type: cell-based; conditions: 24 hours, FIG. 1
Description: FIG. 1 illustrates the effect of exogenously added prostatic NEM on DNA synthesis of an aggressive prostate cancer (PC-3M) cell line. To obtain the results shown in FIG. 1, PC-3M cells were seeded at a density of 10,000 cells per well and incubated overnight in the complete medium. The cells were then washed with and incubated in serum-free medium containing the agents and 0.5 μCi of 3H-thymidine for 24 hours. At the end of incubation, the cells were washed three times with PBS-1 μM thymidine and the incorporated radioactivity was determined in TCA-precipitable fraction.
If NEM-induced DNA synthesis may influence proliferative activity of a prostate tumor and other cancer cells, then its immunoneutralization should reduce the growth. This hypothesis was tested by studying the rate of 3H-thymidine incorporation in PC-3M prostate cancer cells. The cells were treated either with non-immune antiserum or anti-NEM antiserum at a final dilution of 1:50.

[2] = tested on: OVCA-5; test: Growth of non-prostate cancer cells (bone-derived cell lines); type: cell-based
[3] = tested on: PC-3M cells; test: Matrigel in vitro invasion of PC-3M cells; type: cell-based
Description: FIG. 2 illustrates the effect of NEM on in vitro invasion of PC-3M cells. The experiment used 3 well Matrigel invasion chambers (Becton Dickinson, Bedford, Mass.). Approximately 200,000 PC-3M cells were seeded in the upper chamber in RPMI 1640 medium containing 0.1% BSA (Sigma, St. Louis), 4 mM L-glutamine, 100 IU/ml penicillin G and 100 ug/ml streptomycin. The lower chamber medium contained chemoattractant medium consisting of 80% complete medium (RPMI 1640, 12% horse serum, 4% […] fetal calf serum, 4 mM L-glutamine, 100 IU/ml penicillin G and […]). Different concentrations of NEM or conditioned media from NEM-PC3-M cells that express NEM (dilutions ranging from 1 to 5) were added to the upper chamber. The experiments were carried out for 72 hours. At the end of the incubation period the Matrigel was scraped off using cotton swabs and the top insert was fixed and stained using Diff Quick staining (Dade Diagnostics, Aguada, PR). The relative invasive potential was determined by normalizing for cell growth. This was done by plating 100,000 cells in six well dishes in chemoattractant medium and determining the relative growth of cells after 72 hours. The number of cells per 100×field were expressed as mean +/−SEM.
FIG. 4 illustrates the effect of the anti-NEM antiserum on invasion of PC-3M cells. […]

[4] = tested on: NEM receptors on prostate cancer cells; test: Binding of NEM to its receptors on prostate cancer cells
[5] = tested on: prostate cancer cell lines; conditions: background statement; cited from earlier work
[6] = target: NEM receptor on prostate cancer cells; test: cell-based or functional assay

## NEM: novel neuroendocrine growth factor or marker isolated from prostate cancer cells; amino acid SEQ ID NO: 6 expressed in PC-3M cells (RTCVLGYLHIVPEFIESQLLGLLSPVSL; listed as Homo sapiens)
[1]; PC-3M cells
  concentration at which the increase in DNA synthesis was significant: ≥ 10 nM
[1]; exogenously added NEM, serum-free medium
  3H-thymidine incorporation (DNA synthesis): stimulated 3H-thymidine incorporation in a dose-dependent fashion
[2]
  growth of non-prostate cancer cells: stimulates the growth
[3]; all concentrations of NEM significant vs 0, P<0.05, FIG. 2
  invasiveness of PC-3M cells: in a dose-dependent fashion significantly increases the invasiveness
[3]; from 0M to 10^-6M NEM, 72 hours, FIG. 2
  increase in invasiveness: 70%
[4]
  receptor binding affinity: high affinity (low nM)

## Pindobind
[5]
  growth of prostate cancer cell lines: inhibit the growth

## RTCVLGYLHIVPEFIESQLLGLLSPVSL (ligand, also: 125I-labelled form used in RIA) [neuroendocrine growth factor or marker (NEM)]
[6]
  3H-thymidine incorporation (DNA synthesis) in PC-3M cells: > 10 nM
  in vitro Matrigel invasion of PC-3M cells: 70%
